In publication PMC3231940, “Disposition, metabolism and mass balance of [^14C]apremilast following oral administration” (Xenobiotica; the Fate of Foreign Compounds in Biological …, 2011):
Several values for one entry are separate records, joined by “and”; a condition that tells them apart may be missing. Equal values may be shown once.

Columns and labels:
[1] = Mass balance: excretion of radioactivity in urine and faeces after a single oral [14C]apremilast dose; format: in vivo, human
Description: This was an open-label, inpatient, single-dose study conducted with six non-smoking healthy male volunteers, aged between 19 and 55 years, with body mass index between 19 and 29kg/m^2. Before initiation of the study, the protocol and consent form were reviewed and approved by the institutional review board. All study participants gave written informed consent before the screening process was initiated. This study was conducted in full accordance with the Declaration of Helsinki and Good Clinical (GCP) as required by and described in 21 Code of Federal Regulations.
Each subject was administered a single oral suspension of 20 mg (100 μCi) of [^14C] apremilast in distilled water (240mL total volume). Subjects were fasted for 8 h prior to and 4 h following dose administration. The residual radioactivity in the dosing vials was determined and accounted for approximately 0.3% of the total radioactivity. Dose administration, sample collection, sample processing and determination of total radioactivity were conducted at MDS Pharma Services (Lincoln, NE). Determination of apremilast in plasma, metabolite profiling and metabolite characterization were performed at XenoBiotic Laboratories, Inc. (Plainsboro, NJ).
Urine was collected pre-dose, 0-4, 4-8, 8-12, 12-24 and every 24 h thereafter up to 216h (9 days) following dose administration and was stabilized with one volume of pH 1.5 Sorensen's citrate buffer (25-mM sodium citrate buffer adjusted to pH 1.5). […] Blood (two 5-mL samples for plasma radioactivity counting, a 3-mL sample for whole blood radioactivity counting, a 2-mL sample for apremilast analysis and a 10-mL sample for metabolite profiling) was collected into heparinized tubes at pre-dose, 0.5, 1, 1.5, 2, 2.5, 3, 4, 6, 8, 12, 16, 24, 36, 48, 72, 96, 120, 144 and 168 h following dose administration. Blood samples collected for radioactivity counting were stored at or below -20°C until analysed. […] All urine, faecal homogenates and plasma samples were stored at or below -20°C until analysed.
All radioactivity determinations were performed using a Tri-Carb model 1600TR liquid scintillation counter (PerkinElmer, Wellesley, MA). For plasma and urine analysis, duplicate samples of a known volume were mixed with Ultima Gold XR scintillation cocktail and directly analysed by liquid scintillation counting. […] Using these criteria, the lower limit of quantification in plasma, blood, urine and faeces were 2.07 ng [^14C]apremilast equivalent/mL (ngEq/mL), 2.61 ngEq/g, 1.89 ngEq/mL and 2.52 ngEq/g, respectively.
The amount of total radioactivity (ngEq) in urine and faeces was determined by multiplying the volume or weight of the samples by the radioactivity concentration. […] For data values below the limit of quantification, a value of zero was assigned for calculations of means.

[2] = cited from earlier work
[3] = patients, 20 mg daily for 29 days, capsules, ref Gottlieb et al. 2008

With `CCOc1cc([C@@H](CS(C)(=O)=O)N2C(=O)c3cccc(NC(C)=O)c3C2=O)ccc1OC` [Apremilast, (+)-N-[2-[(lS)-1-(3-ethoxy-4-methoxyphenyl)-2-(methylsulfonyl)ethyl]-1,3-dioxo-2,3-dihydro-lH-isoindol-4-yl]acetamide] the “Amount of drug absorbed” value ([1]; based on urinary radioactivity) was “at least 58%”, the “Faecal excretion of radioactivity, mean (percentage of dose)” value ([1]; collection over 216 h, listed as [^14C]apremilast) was 39% and 39.2% and the “Amount of drug absorbed” value ([1]; if faecal metabolites are included in the calculation) was over 80%. The “Radioactivity recovered within the first 4 days (96 h)” value ([1]; urine plus faeces, 96 h after dose, listed as [^14C]apremilast) was > 90% and > 92%, the half-life ([2]; patients with severe plaque-type psoriasis, multiple daily doses, ref Gottelieb et al. 2008) was 8.2 h and the AUC0-24 [2, 3] was 1799 ng·h/mL. For the same molecule, the Cmax [2, 3] was 207 ng/mL.
